“And” between values parts separate entries of the source, which are not always exact repeats. Identical values can stand only once.
Legend:
[1] = biological target: T1, human FAAH (Fatty Acid Amide Hydrolase) (Homo sapiens, UniProt O00519); test: FAAH whole cell assay on CHO cells expressing human FAAH (human WC), AAMCA fluorescent substrate; type: cell-based; details: human FAAH_CHO whole cell
T1 construct: The full length FAAH was subcloned into the mammalian expression vector, pcDEF.neo, using XbaI and EcoRI restriction sites; expressed in transfected cells
T1 sequence (O00519 1-579): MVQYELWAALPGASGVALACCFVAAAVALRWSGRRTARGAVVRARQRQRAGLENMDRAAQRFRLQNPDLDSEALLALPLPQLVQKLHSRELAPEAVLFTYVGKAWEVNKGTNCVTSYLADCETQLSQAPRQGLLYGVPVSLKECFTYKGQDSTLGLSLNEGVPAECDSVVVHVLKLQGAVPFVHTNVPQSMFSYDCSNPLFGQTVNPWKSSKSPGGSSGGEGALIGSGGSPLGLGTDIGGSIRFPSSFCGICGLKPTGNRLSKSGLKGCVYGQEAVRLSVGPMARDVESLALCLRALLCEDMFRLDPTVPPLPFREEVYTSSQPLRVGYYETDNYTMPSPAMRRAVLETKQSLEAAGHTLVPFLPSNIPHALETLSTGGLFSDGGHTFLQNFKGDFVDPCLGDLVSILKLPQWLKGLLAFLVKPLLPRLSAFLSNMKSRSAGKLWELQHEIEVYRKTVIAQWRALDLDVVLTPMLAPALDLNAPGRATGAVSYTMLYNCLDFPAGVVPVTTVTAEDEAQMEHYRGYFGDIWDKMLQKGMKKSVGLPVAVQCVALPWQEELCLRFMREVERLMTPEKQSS
Description: (§1) To assist in assay development stable cell lines for human, murine and rat full length FAAH were developed. Human FAAH cDNA (Accession No: NM_001441.1) was purchased from Origene (Rockville, Md.). The full length FAAH was subcloned into the mammalian expression vector, pcDEF.neo, using XbaI and EcoRI restriction sites and used for stable cell line generation.
Murine (accession number NM_010173) and Rat FAAH (accession number NM_024132) was amplified by reverse transcriptase polymerase chain reaction (RT-PCR) from brain cDNA (BD Biosciences, San Jose, Calif.) using primers 1 and 2 or primers 1 and 3 respectively (see Table). The resulting PCR product was ligated into pCR4 TOPO and DNA sequence confirmed. The full length murine FAAH was subcloned into the mammalian expression vector, pcDEFneo using either EcoRI (murine) or KpnI and EcoRI (rat) restriction sites. Chinese hamster ovary cells (CHO) were transfected following manufacturers protocol (AMAXA). Forty eight hours post transfection, cells were trypsinized and transferred to 96 well plates in Iscove's DMEM media supplemented with 2 mM Glutamine, 10% fetal calf serum, 1 mg/ml geneticin and HT Supplement (0.1 mM sodium hypoxanthine, 0.016 mM thymidine) in order to isolate single clones. Following selection in geneticin, individual clones were selected and FAAH activity was assessed using a whole cell fluorescent anandamide assay, modified from Ramarao et al (2005). Following removal of tissue culture media cells were dislodged following addition of Cellstripper (Mediatech, Inc. Manassas, Va.) and transferred to 96 well black clear bottom assay plate, centrifuged at 1,000 rpm for 3 mins and media removed and replaced with assay buffer (50 mM Tris pH8.0, 1 mM EDTA, 0.1% fatty acid free BSA). The reaction was initiated by addition of fluorescent substrate, AMC Arachidonoyl Amide (Cayman Chemical, Ann Arbor, Mich.) to 1 μM and reaction allowed to proceed for 2 hours at room temperature. Release of fluorescence was monitored in a CytoFluor Multiplate Reader. Cells expressing the highest amount of FAAH activity were selected for study with FAAH inhibitors.
(§2) (American Radiolabeled Chemicals; 1 mCi/ml) with FAAH (Life Sciences (1995), 56, 1999-2005 and Journal of Pharmacology and Experimented Therapeutics (1997), 283, 729-734), Analytical. Biochemistry (2003), 318, 270-5. In addition, routine assays were performed monitoring hydrolysis of arachidonyl-7-amino-4-methylcoumarin amide (AAMCA) by following increase in fluorescence upon release of 7-amino 4-methyl coumarin (λEX=355 nm, μEM=460 nm). Analytical. Biochemistry (2005). 343, 143-51
Assays are performed on either cell lysate or microsome fractions prepared as described or in whole cell format employing either the fluorescent substrate AAMCA (Cayman chemical, Ann Arbor, Mich.,) or ^3H-anandamide ([ETHANOLAMINE-1-3H] American Radiolabeled Chemicals; 1 mCi/ml). The cell lysate or microsome assay is performed in black PerkinElmer OptiPlates-384F by adding FAAH_CHO (whole cell (human whole cell or human WC), cell lysate (human cell lysate or human LY) or microsome) in assay buffer (50 mM Phosphate, pH 8.0, 1 mM EDTA, 200 mM KCl, 0.2% glycerol, 0.1% fatty acid free BSA) to each well, followed by either DMSO or compound and allowed to incubate at 22-25° C. for fifteen minutes. AAMCA substrate was used to achieve a final concentration of 1 μM and reaction allowed to proceed at room temperature for 1-3 hours. Fluorescent release as a measure of FAAH activity was monitored by reading the plate in a Envision plate Reader (Ex: 360/40 nM; Em: 460/40 nM). Whole cell assay is conducted with cells harvested after rinsing tissue culture flasks three times with Ca^++Mg^++ free PBS, incubating for […] in Enzyme free dissociation media and centrifuging for 5 minutes at 1,000 rpm in table top centrifuge. […]

[2] = biological target: T1, human FAAH (Fatty Acid Amide Hydrolase); test: FAAH enzyme assay on CHO cell lysate expressing human FAAH (human LY), AAMCA fluorescent substrate; type: biochemical; details: human FAAH_CHO cell lysate
Description: as §1
CHO cells expressing FAAH were used to prepare either crude cell lysate or microsome fractions. To harvest cells, tissue culture media was decanted, the monolayer washed three times with Ca^++Mg^++ free PBS and cells recovered after […] in enzyme free dissociation media (Millipore Corp, Billerica, Mass.). Cells were collected by centrifuging at 2000 rpm for 15 min. and the cell pellet re-suspended with 50 mM HEPES (pH 7.4) containing 1 mM EDTA and the protease inhibitors aprotinin (1 mg/ml) and leupeptin (100 μM). The suspension was sonicated at 4° C. and the cell lysate recovered after centrifuging at 12,000×g (14,600 rpm, SS34 rotor) for 20 min at 4° C. to form a crude pellet of cell debris, nuclei, peroxisomes, lysosomes, and mitochondria; the supernatant or cell lysate was used for FAAH enzyme assay. In some cases, microsomes fractions enriched in FAAH were prepared by centrifuging the cell lysate further at 27,000 rpm (100,000×g) in SW28 rotor for 50 minutes at 4° C. The pellet containing FAAH-enriched microsomes was re-suspend in 50 mM HEPES, (pH 7.4) 1 mM EDTA, and any remaining DNA sheared by passage of material through a 23 gauge needle and aliquots of enzyme were store at −80° C. prior to use.
as §2
Assays are performed on either cell lysate or microsome fractions prepared as described or in whole cell format employing either the fluorescent substrate AAMCA (Cayman chemical, Ann Arbor, Mich.,) or ^3H-anandamide ([ETHANOLAMINE-1-3H] American Radiolabeled Chemicals; 1 mCi/ml). The cell lysate or microsome assay is performed in black PerkinElmer OptiPlates-384F by adding FAAH_CHO (whole cell (human whole cell or human WC), cell lysate (human cell lysate or human LY) or microsome) in assay buffer (50 mM Phosphate, pH 8.0, 1 mM EDTA, 200 mM KCl, 0.2% glycerol, 0.1% fatty acid free BSA) to each well, followed by either DMSO or compound and allowed to incubate at 22-25° C. for fifteen minutes. AAMCA substrate was used to achieve a final concentration of 1 μM and reaction allowed to proceed at room temperature for 1-3 hours. Fluorescent release as a measure of FAAH activity was monitored by reading the plate in a Envision plate Reader (Ex: 360/40 nM; Em: 460/40 nM). Whole cell assay is conducted with cells harvested after rinsing tissue culture flasks three times with Ca^++Mg^++ free PBS, incubating for […] in Enzyme free dissociation media and centrifuging for 5 minutes at 1,000 rpm in table top centrifuge. Cells are resuspended in assay buffer at desired cell number in (4×10^4 cells/assay in 96-well format; 1×10^4 cells/assay in 384-well format) and assayed as described.

Row | SMILES | IC50 [1] | IC50 [2]
1 | NS(=O)(=O)c1ccc(-c2[nH]c3ncccc3c2Sc2ccc(Cl)cn2)cc1 [Example A8, 4-{3-[(5-chloropyridin-2-yl)sulfanyl]-1H-pyrrolo[2,3-b]pyridin-2-yl}benzenesulfonamide] | 21.8 nM | 6 nM
2 | CSc1ccc(-c2[nH]c3ncccc3c2Sc2ccc(Cl)cc2)cc1 [Example A10] | 7.67 nM | 0.872 nM
3 | CN(C)S(=O)(=O)c1ccc(-c2[nH]c3ncccc3c2Sc2ccc(Cl)cc2)cc1 [Example A11] | 84.1 nM | 6.38 nM
4 | OC(c1ccc(-c2[nH]c3ncccc3c2Sc2ccc(Cl)cc2)cc1)C(F)(F)F (centres unmarked) [Example A12] | 27 nM | 5.29 nM
5 | CC(C)(O)c1ccc(-c2[nH]c3ncccc3c2Sc2ccc(Cl)cn2)cc1 [Example A13] | 73.2 nM | 17.8 nM
6 | CSc1ccc(-c2[nH]c3ncccc3c2Sc2ccc(Cl)cn2)cc1 [Example A14] | 35.6 nM | 2.98 nM
7 | C[S+]([O-])c1ccc(-c2[nH]c3ncccc3c2Sc2ccc(Cl)cn2)cn1 (centres unmarked) [Example A15] | 34.4 nM | 44.1 nM
8 | CSc1ccc(-c2[nH]c3ncccc3c2Sc2ccc(Cl)cc2)cn1 [Example A16] | 24 nM | 3.08 nM
9 | CC(C)Oc1ccc(-c2[nH]c3ncccc3c2Sc2ccc(Cl)cc2)cc1 [Example A17] | 154 nM | 11.6 nM
10 | COCc1ccccc1-c1[nH]c2ncccc2c1Sc1ccc(Cl)cc1 [Example A19] | 1740 nM | 196 nM
11 | CC(=O)Nc1ccc(-c2[nH]c3ncccc3c2Sc2ccc(Cl)cc2)cc1 [Example A20] | 370 nM | 110 nM
12 | O=S(=O)(c1ccc(-c2[nH]c3ncccc3c2Sc2ccc(Cl)cn2)cc1)N1CCOCC1 [Example A21] | 370 nM | 230 nM
13 | CC(C)(C)NS(=O)(=O)c1ccc(-c2[nH]c3ncccc3c2Sc2ccc(Cl)cc2)cc1 [Example A22] | 370 nM | 117 nM
14 | Oc1ccc(-c2[nH]c3ncccc3c2Sc2ccc(Cl)cc2)cc1 [Example A23] | 16.4 nM | 1.65 nM
15 | COc1ccc(-c2[nH]c3ncccc3c2Sc2ccc(Cl)cn2)cn1 [Example A24] | 128 nM | 30.4 nM
16 | OC(c1ccc(-c2[nH]c3ncccc3c2Sc2ccc(Cl)cn2)cc1)C(F)(F)F (centres unmarked) [Example A25] | 147 nM | 37.6 nM
17 | COC(=O)c1ccc(-c2[nH]c3ncccc3c2Sc2ccc(Cl)cc2)cc1 [Example A26] | 18.3 nM | 2.84 nM
18 | Nc1ccc(-c2[nH]c3ncccc3c2Sc2ccc(Cl)cc2)cc1 [Example A27] | 124 nM | 5.56 nM
19 | OC1CC=C(c2[nH]c3ncccc3c2Sc2ccc(Cl)cn2)CC1 (centres unmarked) [Example A28] | 31.6 nM and 60.4 nM | 11.8 nM and 20.5 nM
20 | OCc1ccc(-c2[nH]c3ncccc3c2Sc2ccc(Cl)cc2)cc1 [Example A29] | 132 nM | 16.9 nM
21 | NCc1ccc(-c2[nH]c3ncccc3c2Sc2ccc(Cl)cc2)cc1 [Example A30] | 833 nM | 56.3 nM
22 | CC(C)(O)c1ccc(-c2[nH]c3ncccc3c2Sc2ccc(Cl)cc2)cc1 [Example A31] | 42 nM | 13.2 nM
23 | O=C1NCc2cc(-c3[nH]c4ncccc4c3Sc3ccc(Cl)cc3)ccc21 [Example A32] | 15.1 nM | 7.84 nM
24 | O=C1Cc2cc(-c3[nH]c4ncccc4c3Sc3ccc(Cl)cn3)ccc2N1 [Example A33] | 405 nM | 134 nM
25 | O=C1NCc2cc(-c3[nH]c4ncccc4c3Sc3ccc(Cl)cn3)ccc21 [Example A34] | 17.1 nM | 12.3 nM
26 | C[S+]([O-])c1ccc(-c2[nH]c3ncccc3c2Sc2ccc(Cl)cc2)cn1 (centres unmarked) [Example A36, 3-[(4-chlorophenyl)sulfanyl]-2-[6-(methylsulfinyl)pyridin-3-yl]-1H-pyrrolo[2,3-b]pyridine] | 28.9 nM | 3.35 nM
27 | Clc1ccc(Sc2c(-c3ccc4c(c3)OCO4)[nH]c3ncccc23)cc1 [Example B4, 2-(1,3-benzodioxol-5-yl)-3-[(4-chlorophenyl)sulfanyl]-1H-pyrrolo[2,3-b]pyridine] | 4.62 nM | 0.508 nM
28 | Clc1ccc(Sc2c(-c3ccc4c(c3)OCO4)[nH]c3ncccc23)nc1 [Example B5, 2-(1,3-benzodioxol-5-yl)-3-[(5-chloropyridin-2-yl)sulfanyl]-1H-pyrrolo[2,3-b]pyridine] | 13.7 nM | 2.58 nM
